# Assay results taken from patent publication US10537549B2, “Dihydroisoxazole compound for use in controlling sea lice” (Elanco Tiergesundheit AG, priority 2016, dated 2020).
# Columns and labels:
# [1] = test system: Lepeophtheirus Salmonis (copepodids, MERL resistant strain IoA-01) on Atlantic Salmon; assay: Activity in vivo against Lepeophtheirus salmonis on Atlantic Salmon using in-feed application; settings: in-feed 5 mg/kg/day for 7 days
# Protocol: Activity In Vivo Against Lepeophtheirus Salmonis on Atlantic Salmon Using in-Feed Application
# 60 Salmon (Atlantic Salmon, S. salar) of average weight 306.5 g are treated with medicated pellets containing the compound of Example 1 (test compound) at a dose of 5 mg/kg/day during 7 consecutive days. The medicated pellets are prepared by dry coating commercially available fish feed pellets with pre-mix containing the test compound to reach a content of […] test compound in the fish feed, sealing with 1% fish oil and administering at a 1% feeding rate. The treatment is carried out in sea water. After treatment, the fish are challenged with copepodids (the MERL resistant strain IoA-01) on 35, 100 and 150 days post-treatment. During the study the water temperature varies between 7 and 10° C. Fish weight and sea louse numbers are assessed 42, 107 and 157 days post-treatment. Counts are conducted on 30 fish at each sampling occasion.
# Efficacy is determined by comparison with a negative control (placebo) group.
# Efficacy is calculated using the formula: % Efficacy=100−(100×mean of treatment group/mean of control).
# All fish are anaesthetized with 2-phenoxy-ethanol and examined for louse settlement under a dissecting microscope. After counting, fish are returned to the tanks.
# [2] = test system: Lepeophtheirus Salmonis at Copepodid Stage; assay: Activity in vitro against Lepeophtheirus salmonis at copepodid stage; settings: 1 hour contact, then 48 h in untreated sea water
# Protocol: Stir a mixture of 3-[(5S)-5-(3,4,5-trichlorophenyl)-5-(trifluoromethyl)-4H-isoxazol-3-yl]-4,5,6,7-tetrahydro-2-benzothiophene-1-carboxylic acid (15.00 g, 30.08 mmol), 2-amino-N-prop-2-ynyl-acetamide (4.90 g, 33.09 mmol, HCl), 1-[bis(dimethylamino)methylene]-1H-1,2,3-triazolo[4,5-b]pyridinium 3-oxid hexafluorophosphate (13.72 g, 36.10 mmol) and N,N-diisopropylethylamine (11.66 g, 90.24 mmol) in dichloromethane (500 mL) at 25° C. for 12 hours. Use thin layer chromatography (petroleum ether:ethyl acetate=3:1, Rf=0.30) to show the reaction progress. Dilute the mixture in water (500 mL) and extract with dichloromethane (500 mL×3). Wash the organic layer with brine (500 mL), dry over sodium sulfate, filter and concentrate under reduced pressure to dryness. […]
smiles,measurement,setting,value
"C#CCNC(=O)CNC(=O)c1sc(C2=NO[C@@](c3cc(Cl)c(Cl)c(Cl)c3)(C(F)(F)F)C2)c2c1CCCC2 [Example 1, N-[2-oxo-2-(prop-2-ynylamino)ethyl]-3-[(5S)-5-(3,4,5-trichlorophenyl)-5-(trifluoromethyl)-4H-isoxazol-3-yl]-4,5,6,7-tetrahydro-2-benzothiophene-1-carboxamide]",% Efficacy vs placebo group (sea louse counts),[1]; challenge 35 days post treatment (counts at 42 days),100%
same,% Efficacy vs placebo group (sea louse counts),[1]; challenge 100 days post treatment (counts at 107 days),100%
same,% Efficacy vs placebo group (sea louse counts),[1]; challenge 150 days post treatment (counts at 157 days),100%
same,efficacy (no copepodid moves over a period of 80 seconds),[2]; 0.5 ng/ml sea water,100%
same,minimal effective dose (MED): dose showing 100% efficacy,[2]; serial dilution,≤ 0.5 ng/ml sea water
